Laboratory results: PubChem BioAssay (NCI)
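The concentration for 50% growth inhibition is given as GI50. TGI: concentration producing complete growth inhibition.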

Tests used:
Assay in all cases: NCI-60 cell line screen, 384-well format
NCI-H460 NSCLC = test system: NCI-H460 NSCLC
TK-10 renal = test system: TK-10 renal
SR leukemia = test system: SR leukemia
786-0 renal = test system: 786-0 renal
OVCAR-5 ovarian = test system: OVCAR-5 ovarian
UACC-62 melanoma = test system: UACC-62 melanoma
NCI/ADR-RES ovarian = test system: NCI/ADR-RES ovarian
MALME-3M melanoma = test system: MALME-3M melanoma
U251 glioblastoma = test system: U251 glioblastoma
SF-295 CNS = test system: SF-295 CNS
T-47D breast = test system: T-47D breast
HCT-116 colon = test system: HCT-116 colon
OVCAR-3 ovarian = test system: OVCAR-3 ovarian
SW-620 colon = test system: SW-620 colon
SNB-19 CNS = test system: SNB-19 CNS
HCT-15 colon = test system: HCT-15 colon
LOX IMVI melanoma = test system: LOX IMVI melanoma
ACHN renal = test system: ACHN renal
NCI-H522 lung = test system: NCI-H522 lung
MDA-MB-468 breast = test system: MDA-MB-468 breast
SNB-75 CNS = test system: SNB-75 CNS
MCF7 breast = test system: MCF7 breast
PC-3 prostate = test system: PC-3 prostate
UACC-257 melanoma = test system: UACC-257 melanoma
A498 renal = test system: A498 renal
NCI-H226 lung = test system: NCI-H226 lung
NCI-H322M lung = test system: NCI-H322M lung
RXF 393 renal = test system: RXF 393 renal
MOLT-4 leukemia = test system: MOLT-4 leukemia
A549 NSCLC = test system: A549 NSCLC
HS 578T breast = test system: HS 578T breast
MDA-MB-231 breast = test system: MDA-MB-231 breast
SN12C renal = test system: SN12C renal
SK-OV-3 ovarian = test system: SK-OV-3 ovarian
M14 melanoma = test system: M14 melanoma
HOP-62 NSCLC = test system: HOP-62 NSCLC
RPMI-8226 leukemia = test system: RPMI-8226 leukemia
SK-MEL-5 melanoma = test system: SK-MEL-5 melanoma
OVCAR-8 ovarian = test system: OVCAR-8 ovarian
IGROV1 ovarian = test system: IGROV1 ovarian
MDA-MB-435 melanoma = test system: MDA-MB-435 melanoma
CAKI-1 renal = test system: CAKI-1 renal
HL-60(TB) leukemia = test system: HL-60(TB) leukemia
EKVX NSCLC = test system: EKVX NSCLC
SF-539 CNS = test system: SF-539 CNS
KM12 colon = test system: KM12 colon
UO-31 renal = test system: UO-31 renal

Work on `COc1cc2c(Nc3cc(Cl)c(OC)c(Cl)c3)c(C#N)cnc2cc1OCCCN1CCN(C)CC1` yielded a GI50 (NCI-H460 NSCLC) of 1020 nM, a TGI (NCI-H460 NSCLC) of 2230 nM and a GI50 (TK-10 renal) of 381 nM. It also gave a TGI (TK-10 renal) of 1620 nM, a GI50 (SR leukemia) of 195 nM and a TGI (SR leukemia) of 377 nM. The GI50 (786-0 renal) was 672 nM, the TGI (786-0 renal) was 1990 nM and the GI50 (OVCAR-5 ovarian) was 1200 nM. For the same compound, the TGI (OVCAR-5 ovarian) was 2700 nM, the GI50 (UACC-62 melanoma) was 1230 nM and the TGI (UACC-62 melanoma) was 2480 nM. The GI50 (NCI/ADR-RES ovarian) was 1830 nM, the TGI (NCI/ADR-RES ovarian) was 3640 nM and the GI50 (MALME-3M melanoma) was 296 nM. For the same compound, the TGI (MALME-3M melanoma) was 1160 nM, the GI50 (U251 glioblastoma) was 1240 nM and the TGI (U251 glioblastoma) was 2510 nM. For the same compound, the GI50 (SF-295 CNS) was 909 nM, the TGI (SF-295 CNS) was 2150 nM and the GI50 (T-47D breast) was 1330 nM. The TGI (T-47D breast) was 2630 nM, the GI50 (HCT-116 colon) was 329 nM and the TGI (HCT-116 colon) was 1200 nM. For the same compound, the GI50 (OVCAR-3 ovarian) was 323 nM, the TGI (OVCAR-3 ovarian) was 1280 nM and the GI50 (SW-620 colon) was 1220 nM. It also gave a TGI (SW-620 colon) of 2520 nM, a GI50 (SNB-19 CNS) of 1710 nM and a TGI (SNB-19 CNS) of 3630 nM. The GI50 (HCT-15 colon) was 878 nM, the TGI (HCT-15 colon) was 2170 nM and the GI50 (LOX IMVI melanoma) was 1230 nM. For the same compound, the TGI (LOX IMVI melanoma) was 2490 nM, the GI50 (ACHN renal) was 257 nM and the TGI (ACHN renal) was 1500 nM. For the same compound, the GI50 (NCI-H522 lung) was 47.7 nM, the TGI (NCI-H522 lung) was 234 nM and the GI50 (MDA-MB-468 breast) was 288 nM. For the same compound, the TGI (MDA-MB-468 breast) was 618 nM, the GI50 (SNB-75 CNS) was 1270 nM and the TGI (SNB-75 CNS) was 2540 nM. For the same compound, the GI50 (MCF7 breast) was 451 nM, the TGI (MCF7 breast) was 1860 nM and the GI50 (PC-3 prostate) was 1320 nM. It also gave a TGI (PC-3 prostate) of 2880 nM, a GI50 (UACC-257 melanoma) of 538 nM and a TGI (UACC-257 melanoma) of 1640 nM. For the same compound, the GI50 (A498 renal) was 257 nM, the TGI (A498 renal) was 1400 nM and the GI50 (NCI-H226 lung) was 1280 nM. The TGI (NCI-H226 lung) was 2960 nM, the GI50 (NCI-H322M lung) was 234 nM and the TGI (NCI-H322M lung) was 1110 nM. For the same compound, the GI50 (RXF 393 renal) was 221 nM, the TGI (RXF 393 renal) was 677 nM and the GI50 (MOLT-4 leukemia) was 163 nM. The TGI (MOLT-4 leukemia) was 313 nM, the GI50 (A549 NSCLC) was 1100 nM and the TGI (A549 NSCLC) was 2370 nM. It also gave a GI50 (HS 578T breast) of 456 nM, a TGI (HS 578T breast) of 1350 nM and a GI50 (MDA-MB-231 breast) of 1360 nM. The TGI (MDA-MB-231 breast) was 2920 nM, the GI50 (SN12C renal) was 321 nM and the TGI (SN12C renal) was 1430 nM. For the same compound, the GI50 (SK-OV-3 ovarian) was 167 nM, the TGI (SK-OV-3 ovarian) was 1420 nM and the GI50 (M14 melanoma) was 191 nM. It also gave a TGI (M14 melanoma) of 633 nM, a GI50 (HOP-62 NSCLC) of 1090 nM and a TGI (HOP-62 NSCLC) of 2440 nM. The GI50 (RPMI-8226 leukemia) was 184 nM, the TGI (RPMI-8226 leukemia) was 366 nM and the GI50 (SK-MEL-5 melanoma) was 464 nM. It also gave a TGI (SK-MEL-5 melanoma) of 1550 nM, a GI50 (OVCAR-8 ovarian) of 389 nM and a TGI (OVCAR-8 ovarian) of 1530 nM. The GI50 (IGROV1 ovarian) was 145 nM, the TGI (IGROV1 ovarian) was 1030 nM and the GI50 (MDA-MB-435 melanoma) was 256 nM. It also gave a TGI (MDA-MB-435 melanoma) of 925 nM, a GI50 (CAKI-1 renal) of 180 nM and a TGI (CAKI-1 renal) of 1340 nM. For the same compound, the GI50 (HL-60(TB) leukemia) was 795 nM, the TGI (HL-60(TB) leukemia) was 2060 nM and the GI50 (EKVX NSCLC) was 404 nM. For the same compound, the TGI (EKVX NSCLC) was 1740 nM, the GI50 (SF-539 CNS) was 222 nM and the TGI (SF-539 CNS) was 484 nM. For the same compound, the GI50 (KM12 colon) was 412 nM, the TGI (KM12 colon) was 1580 nM and the GI50 (UO-31 renal) was 605 nM. The TGI (UO-31 renal) was 1850 nM.
